Among the data in the RepoRT retention time repository (doi:10.1021/acs.analchem.2c02893) are LC retention time values, retold here.

Common to all, as to conditions: stereoisomer not certain
Data set [1] can be described thus: RP, Thermo Scientific Acclaim RSLC 120 C18, 100 × 2.1 mm, 2.2 µm, 30 °C, 0.2 mL/min, estimated dead time 1.1 min; A: water + 0.1% formic acid, pH 2.6; B: methanol + 0.1% formic acid, pH 2.6; gradient (min/%B) 0/10 4/50 17/95 25/95 25.1/10 30/10.
Data set [2] in a line: RP, Thermo Scientific Acclaim RSLC 120 C18, 100 × 2.1 mm, 2.2 µm, 30 °C, 0.2 mL/min, estimated dead time 1.1 min; A: 90% water + 10% methanol + 0.01% formic acid + 5 mM ammonium formate, pH 3.61; B: methanol + 0.01% formic acid + 5 mM ammonium formate, pH 3.61; gradient (min/%B) 0/1 1/1 2/39 13/99.9 15/99.9 15.1/1 20.1/1.
A short description of data set [3]: RP, Waters ACQUITY UPLC BEH C18, 100 × 2.1 mm, 1.7 µm, 30 °C, 0.35 mL/min, estimated dead time 0.63 min; A: water + 0.01% formic acid + 5 mM ammonium formate, pH 3.71; B: acetonitrile + 0.01% formic acid, pH 3.71; gradient (min/%B) 0/10 3/10 22/100 30/100 30.1/10 40/10.
Data set [4] in a line: RP, Waters ACQUITY UPLC BEH C18, 100 × 2.1 mm, 1.7 µm, 35 °C, 0.35 mL/min, estimated dead time 0.63 min; A: water + 0.01% formic acid + 5 mM ammonium formate, pH 3.71; B: acetonitrile + 0.01% formic acid, pH 3.71; gradient (min/%B) 0/5 0.5/5 16/95 16.1/99 19/99 19.1/5 21/5.

Molecules are shown by their SMILES.

For the molecule `CC12CCC(O)CC1CCC1C2C(=O)CC2(C)C1CCC2(O)C(=O)CO` (centres undefined), the LC retention time in data set [1] is 11.2 min; in data set [2] it was 9.21 min; in data set [3] it was 9.93 min; in data set [4], 7.37 min.

For `Nc1ncnc2c1ncn2C1OC(CO)C(O)C1O` (centres undefined) [Adenosine], the LC retention time in data set [1] is 2.13 min; in data set [2], 3.14 min; in data set [3], 1.31 min; in data set [4] it was 1.27 min.

As to `CC(C)(C)NCC(O)c1ccc(O)c(CO)c1` (centres undefined) [Albuterol/Salbutamol], the values for the LC retention time in data set [1], in data set [3] and in data set [4] were 2.71 min, 1.28 min and 1.92 min, respectively.

Regarding `Nc1ncn[nH]1` [Amitrole], the LC retention time is 1.44 min in data set [2], 0.91 min in data set [3] and 0.88 min in data set [4].

Take `CC(N)Cc1ccccc1` (centres undefined) [Amphetamine]: the LC retention time in data set [1] was 3.86 min; in data set [2], 4.16 min; in data set [3], 2.99 min; in data set [4], 3.28 min.

With `C1=CCC(c2cccnc2)NC1` (centres undefined) [Anatabine], the LC retention time is 3.66 min in data set [1], 2.68 min in data set [2], 1.08 min in data set [3] and 1.27 min in data set [4].

Take `NCC(O)c1ccccc1` (centres undefined) [Apophedrin (Phenylethanolamine)]: the LC retention time was 2.34 min in data set [1], 1.38 min in data set [3] and 1.65 min in data set [4].

`CCNc1nc(N)nc(Cl)n1` [Atrazine-desisopropyl]: the LC retention time in data set [1] is 5.22 min; in data set [2] it was 4.75 min; in data set [3], 3.51 min; in data set [4] it was 3.58 min.

In the case of `CCNc1nc(Cl)nc(NC(C)C)n1` [Atrazine], the LC retention time was 9.72 min in data set [1], 8.16 min in data set [2], 10.3 min in data set [3] and 7.82 min in data set [4].

For the molecule `CCC(C)C1OC2(C=CC1C)CC1CC(CC=C(C)C(OC3CC(OC)C(OC4CC(OC)C(O)C(C)O4)C(C)O3)C(C)C=CC=C3COC4C(O)C(C)=CC(C(=O)O1)C34O)O2` (centres undefined) [Avermectin], the LC retention time was 18.7 min in data set [1], 18.8 min in data set [3] and 14.6 min in data set [4].

Take `COc1ccc(C(=O)c2ccccc2)c(O)c1` [Benzophenon 3 (=2-Hydroxy-4-methoxybenzophenon)]: the LC retention time in data set [1] was 13.8 min; in data set [2], 10.8 min; in data set [3] it was 14.5 min; in data set [4] it was 11 min.

Consider `O=c1[nH]c2ccccc2s1` [Benzothiazole-2-OH], for which the LC retention time is 7.4 min in data set [1], 7.78 min in data set [3] and 5.76 min in data set [4].

`c1ccc2n[nH]nc2c1` [Benzotriazole (BTR)]: the LC retention time was 5.31 min in data set [1], 4.76 min in data set [2], 3.69 min in data set [3] and 3.61 min in data set [4].

For the molecule `CC(C)NCC(O)COc1ccc(COCCOC(C)C)cc1` (centres undefined) [Bisoprolol], the LC retention time was 5.8 min in data set [1], 5.91 min in data set [2], 8.09 min in data set [3] and 5.91 min in data set [4].

As for `CCCCOc1ccc(CC(=O)NO)cc1` [Bufexamac], the LC retention time in data set [1] was 9.38 min; in data set [2], 7.83 min; in data set [3], 9.74 min; in data set [4], 7.21 min.

Turning to `C[N+](C)(C)CCCl` [Chlormequate], the LC retention time in data set [3] and in data set [4] was 0.84 min in each case.

As to `C#CCN(C)C(C)Cc1ccccc1` (centres undefined) [Deprenyl/Selegiline], the LC retention time is 4.32 min in data set [1], 5.98 min in data set [3] and 4.53 min in data set [4].

With `CCC(C)C1OC2(C=CC1C)CC1CC(CC=C(C)C(OC3CC(OC)C(OC4CC(OC)C(NC)C(C)O4)C(C)O3)C(C)C=CC=C3COC4C(O)C(C)=CC(C(=O)O1)C34O)O2` (centres undefined) [Emamectin], the results for the LC retention time in data set [1], in data set [3] and in data set [4] were 14.3 min, 16.3 min and 12.6 min, respectively.

Consider `CCNC(C)Cc1cccc(C(F)(F)F)c1` (centres undefined) [Fenfluramine], for which the LC retention time is 5.84 min in data set [1], 8.46 min in data set [3] and 6.21 min in data set [4].

As for `NC(=O)N=C(N)N` [Guanylurea], the LC retention time is 0.83 min in data set [3] and 0.86 min in data set [4].

Regarding `NCCc1cnc[nH]1` [Histamine], the figures for the LC retention time in data set [2], in data set [3] and in data set [4] were 1.58 min, 0.99 min and 0.94 min, respectively.

Regarding `CCC(C)C1OC2(CCC1C)CC1CC(CC=C(C)C(OC3CC(OC)C(OC4CC(OC)C(O)C(C)O4)C(C)O3)C(C)C=CC=C3COC4C(O)C(C)=CC(C(=O)O1)C34O)O2` (centres undefined) [Ivermectin], the LC retention time was 20.4 min in data set [1], 21.1 min in data set [3] and 17 min in data set [4].

With `c1cc2c(cc1CN1CCNCC1)OCO2` [Piperazine-1-Piperonyl], the results for the LC retention time in data set [1], in data set [3] and in data set [4] were 2.56 min, 2.63 min and 3.2 min, respectively.

Regarding `CC12CCC(=O)C=C1CCC1C2CCC2(C)C(O)CCC12` (centres undefined) [Testosterone], the LC retention time in data set [1] is 12.2 min; in data set [3], 11.6 min; in data set [4] it was 8.76 min.

As for `COP(=O)(OC)C(O)C(Cl)(Cl)Cl` (centres undefined) [Trichlorfon], the figures for the LC retention time in data set [1], in data set [3] and in data set [4] were 5.86 min, 5.41 min and 4.26 min, respectively.

On to `COc1ccc(CCN(C)CCCC(C#N)(c2ccc(OC)c(OC)c2)C(C)C)cc1OC` (centres undefined) [Verapamil], for which the LC retention time in data set [2] was 7.03 min.

For the molecule `CCCSC(=O)N(CCC)CCC` [Vernolate], the LC retention time in data set [2] is 11.5 min.

For the molecule `CCC12CCCN3CCc4c(n(c5ccccc45)C(O)(C(=O)OC)C1)C32` (centres undefined) [Vincamine], the LC retention time in data set [2] is 5.04 min.

For `C=CC1(C)OC(=O)N(c2cc(Cl)cc(Cl)c2)C1=O` (centres undefined) [Vinclozolin], the LC retention time in data set [2] is 10.6 min.

As for `COc1ccc(C(=O)c2c(C)n(CCN3CCOCC3)c3ccccc23)cc1` [WIN-48-098], in data set [2], the LC retention time is 9.55 min.

For `Cc1c(C(=O)c2cccc3ccccc23)c2cccc3c2n1C(CN1CCOCC1)CO3` (centres undefined) [WIN-55-212-2], in data set [2], the LC retention time was 10.9 min.

Consider `CC(=O)CC(c1ccccc1)c1c(O)c2ccccc2oc1=O` (centres undefined) [Warfarin], for which the LC retention time in data set [2] was 9.35 min.

`CC(F)CCCn1cc(C(=O)C2C(C)(C)C2(C)C)c2ccccc21` (stereo not drawn) [XLR-11 Isomer]: in data set [2], the LC retention time was 11.6 min.

Turning to `CC1(C)C(C(=O)c2cn(CCCCCF)c3ccccc23)C1(C)C` [XLR-11], the LC retention time in data set [2] was 11.9 min.

`CC1(C)C(C(=O)c2cn(CCCC(F)(F)F)c3ccccc23)C1(C)C` [XLR-12]: in data set [2], the LC retention time was 12 min.

In the case of `CNC(=O)Oc1cc(C)cc(C)c1` [XMC (Group of peaks!)], in data set [2], the LC retention time was 7.78 min.

Regarding `CN(CCO)CC(O)Cn1cnc2c1c(=O)n(C)c(=O)n2C` (centres undefined) [Xanthinol], the LC retention time in data set [2] is 2.99 min.

Regarding `Cc1cccc(C)c1NC(=O)c1cc(S(N)(=O)=O)c(Cl)cc1O` [Xipamide], the LC retention time in data set [2] is 7.36 min.

For the molecule `Cc1cc(C(C)(C)C)cc(C)c1CC1=NCCN1` [Xylometazoline], in data set [2], the LC retention time was 7.75 min.

On to `COC(=O)C1C(O)CCC2CN3CCc4c([nH]c5ccccc45)C3CC21` (centres undefined) [Yohimbine], for which the LC retention time in data set [2] is 5.08 min.

Turning to `CCN(C(C)=O)c1cccc(-c2ccnc3c(C#N)cnn23)c1` [Zaleplon], the LC retention time in data set [2] was 6.61 min.

On to `Cc1cn(C2CC(N=[N+]=[N-])C(CO)O2)c(=O)[nH]c1=O` (centres undefined) [Zidovudine], for which the LC retention time in data set [2] was 4.56 min.

For `CN(C)CC=C(c1ccc(Br)cc1)c1cccnc1` [Zimelidine], in data set [2], the LC retention time was 6.56 min.

For `O=C1Cc2cc(CCN3CCN(c4nsc5ccccc45)CC3)c(Cl)cc2N1` [Ziprasidone], the LC retention time in data set [2] was 8.03 min.

In the case of `CN(C)CCc1c[nH]c2ccc(CC3COC(=O)N3)cc12` (centres undefined) [Zolmitriptan], in data set [2], the LC retention time is 3.61 min.

As for `Cc1ccc(-c2nc3ccc(C)cn3c2CC(=O)N(C)C)cc1` [Zolpidem], in data set [2], the LC retention time was 5.8 min.

Regarding `NS(=O)(=O)Cc1noc2ccccc12` [Zonisamide], the LC retention time in data set [2] is 4.53 min.

In the case of `CN1CCN(C(=O)OC2c3nccnc3C(=O)N2c2ccc(Cl)cn2)CC1` (centres undefined) [Zopiclone], the LC retention time in data set [2] was 4.89 min.

On to `CN(C)CCOC1=Cc2ccccc2Sc2ccc(Cl)cc21` [Zotepine], for which the LC retention time in data set [2] was 9.04 min.

Take `CCC(C)(NC(=O)c1cc(Cl)c(C)c(Cl)c1)C(=O)CCl` (centres undefined) [Zoxamide]: in data set [2], the LC retention time is 11.1 min.

Consider `CCCc1nn(C)c2c(=S)nc(-c3cc(C(=S)N4CCN(C)CC4)ccc3OCC)[nH]c12` [carbodenafil-Dithio-desmethyl], for which the LC retention time in data set [2] was 11.5 min.
